Patent US5798362A, “Quinazolinyl-amino derivatives having α-antagonist activity” (Recordati S.A. Chemical and Pharmaceutical Company, priority 1994, dated 1998)
pIC50: −log10 of the molar value. Where a name gives a salt, the structure may show the parent alone. Read-outs that look alike come from different tables or passages of the source.

Tests used:
[1] = target: α1-receptors ([3H]prazosin); test: [3H]Prazosin binding (α1-receptors), rat cerebral cortices; details: rat cerebral cortex, 0.35 nM [3H]prazosin, 25° C., 30 min; read-out: [3H] prazosine IC50
Protocol: Rat cerebral cortices were homogenized in 50 volumes of original wet weight of ice-cold 50 mM Tris-HCl buffer pH 7.4. The homogenates were centrifuged at 48,000 × g for 10 minutes, and the pellets were resuspended in the same volume of ice-cold buffer, centrifuged and resuspended two more times. […] The incubations were terminated by rapid filtration through Whatman GF/B, filters using a Brandel cell harvester and the filters were washed with 3×3 ml of ice-cold buffer. The radioactivity retained on the filters was determined by liquid scintillation counting. Data analysis The inhibition of specific binding of the radioligands by the tested drugs was analyzed to estimate the IC50 value by using the non-linear curve-fitting program Allfit [A. De Lean et al., Am. J. Physiol.

in vivo = details: mouse, mice, mortality 7 days after administration
Protocol: 20-30 g b.w., were obtained from Charles River, Italy. Animals were housed with free access to food and water and maintained on forced light-dark cycle at 22°-24° C. until the day of experiments.
The acute toxicity of synthesized compounds was evaluated in female Albino Swiss mice after intraperitoneal and oral administration. Four logarithmic scaled doses of the compounds were dissolved or suspended in 0.5% Methocel and administered in a volume of 10 ml/kg to groups of 4 mice/dose. Mortality was recorded 7 days after the administration.

[2] = ip, intraperitoneal, read-out: DL50 i.p.

Row | Structure (SMILES) | pIC50 [1] | LD50 at 168 h (in vivo; [2]) [mg/kg] | LD50 at 168 h (in vivo; oral, read-out: DL50 p.o.) [mg/kg]
1 | COc1cc2nc(N3CCN(C(=O)C(C)(C)Oc4ccccc4)CC3)nc(N)c2cc1OC [Example 21, 4-Amino-6,7-dimethoxy-2-[4-(2-phenoxy-2-methylpropionyl)-1-piperazinyl]-quinazoline hydrochloride . 1.5 H2 O] | 7.00 | 206 | > 1700
2 | COc1cc2nc(N3CCN(C(=O)CCC(=O)c4ccccc4)CC3)nc(N)c2cc1OC.Cl.O [Example 15, 4-Amino-6,7-dimethoxy-2-{4-[(3-benzoyl)propionyl]-1-piperazinyl}-quinazoline hydrochloride hydrate] | 7.82 | > 1000 | > 3000
3 | COc1cc2nc(N3CCN(C(=O)COc4cc(C)ccc4C(C)C)CC3)nc(N)c2cc1OC [Example 25, 4-Amino-6,7-dimethoxy-2-{4-[(2-isopropyl-5-methylphenoxy)acetyl]-1-piperazinyl}-quinazoline hydrochloride . 0.25 H2 O] | 6.80 | 346 | > 3000
4 | COc1cc2nc(N3CCN(C(=O)C(c4ccccc4)c4ccccc4)CC3)nc(N)c2cc1OC [Example 3, 4-Amino-6,7-dimethoxy-2-[4-(2,2-diphenylacetyl)-1-piperazinyl]-quinazoline hydrochloride . 0.75 H2 O] | 8.30 | 112 | 868
5 | COc1cc2nc(N3CCN(Cc4ccccc4)CC3)nc(N)c2cc1OC [Example 1, 4-Amino-6,7-dimethoxy-2-(4-benzyl-1-piperazinyl)-guinazoline bihydrochloride hemihydrate] | 7.49 | 76 | 301
6 | COc1cc2nc(N3CCN(C(=O)CCNC(=O)OCc4ccccc4)CC3)nc(N)c2cc1OC [Example 5, 4-Amino-6,7-dimethoxy-2-{4-[(3-benzyloxycarbonylamino)propionyl]-1-piperazinyl}-quinazoline hydrochloride emihydrate] | 6.55 | 300 | > 3000
7 | COc1cc2nc(N3CCN(C(=O)NCCN(C)C)CC3)nc(N)c2cc1OC.Cl.Cl.O.O.O.O [Example 10, 4-Amino-6,7-dimethoxy-2-{4-[(2-dimethylaminoethyl)amino-carbonyl]-1-piperazinyl}-quinazoline dihydrochloride tetrahydrate] | 7.26 | 23 | 1350
8 | COc1cc2nc(N3CCN(C(=O)CCC(O)c4ccccc4)CC3)nc(N)c2cc1OC (stereo not drawn) [Example 16, 4-Amino-6,7-dimethoxy-2-[4-(4-phenyl-4-hydroxybutirryl)-1-piperazinyl]-quinazoline maleate (1:1)] | 7.77 | 253 | > 3000
9 | COc1cc2nc(N(C)CCCN3CCN(c4ccccc4OC)CC3)nc(N)c2cc1OC.Cl.Cl.O.O [Example 31, 4-Amino-6,7-dimethoxy-2-{N-methyl-N-{3-[4-(2-methoxyphenyl)-1-piperazinyl]propyl}amino}-quinazoline dihydrochloride dihydrate] | 7.92 | 70 | > 2000
10 | COc1cc2nc(N3CCN(C(=O)CNC(=O)OCc4ccccc4)CC3)nc(N)c2cc1OC.Cl [Example 11, 4-Amino-6,7-dimethoxy-2-{4-[2-(benzyloxycarbonylamino)-acetyl]-1-piperazinyl}-quinazoline hydrochloride] | 7.21 | > 1000 | > 3000
11 | COc1cc2nc(N3CCN(C(=O)CC(c4ccccc4)c4ccccc4)CC3)nc(N)c2cc1OC [Example 4, 4-Amino-6,7-dimethoxy-2-[4-(3,3-diphenylpropionyl)-1-piperazinyl]-guinazoline hydrochloride] | 8.52 | 97 | > 3000
12 | COc1cc2nc(N(C)CCC(c3ccccc3)c3ccccc3)nc(N)c2cc1OC [Example 29, 4-Amino-6,7-dimethoxy-2-(N-methyl-3,3-diphenylpropylamino)-guinazoline hydrochloride] | 7.07 | 163 | > 2000
13 | CCOC(=O)CC(=O)N1CCN(c2nc(N)c3cc(OC)c(OC)cc3n2)CC1.Cl [Example 18, 4-Amino-6,7-dimethoxy-2-[4-(2-ethoxycarbonylacetyl)-1-piperazinyl]-quinazoline hydrochloride] | 7.27 | > 1000 | > 3000
14 | COc1cc2nc(N3CCN(C(=O)CC(=O)Nc4ccccc4)CC3)nc(N)c2cc1OC [Example 20, 4-Amino-6,7-dimethoxy-2-[4-(phenylaminocarbonylacetyl)-1-piperazinyl]-quinazoline hydrochloride hemihydrate] | 7.17 | – | –
15 | COc1cc2nc(N3CCN(C(=O)COc4c(OC)cccc4OC)CC3)nc(N)c2cc1OC [Example 27, 4-Amino-6,7-dimethoxy-2-[4-(2,6-dimethoxyphenoxy)acetyl-1-piperazinyl]-quinazoline hydrochloride . 0.25 H2 O] | 8.22 | – | –
16 | COc1cc2nc(N3CCC(c4ccccc4)(c4ccccc4)CC3)nc(N)c2cc1OC [Example 32, 4-Amino-6,7-dimethoxy-2-(4,4-diphenyl-1-piperidinyl)-guinazoline hydrochloride . 0.65 H2 O] | 6.59 | > 500 | > 2000
17 | COc1cc2nc(N3CCN(C(=O)CCCNS(C)(=O)=O)CC3)nc(N)c2cc1OC [Example 9, 4-Amino-6,7-dimethoxy-2-{4-[(4-methylsulfonylamino)butirry]-1-piperazinyl}-quinazoline hydrochloride] | 7.07 | > 500 | –
18 | COc1cc2nc(N3CCN(C(=O)C(C)Oc4c(OC)cccc4C(C)C)CC3)nc(N)c2cc1OC.Cl (stereo not drawn) [Example 26, 4-Amino-6,7-dimethoxy-2-{4-[2-(2-methoxy-6-isopropylphenoxy)propionyl]-1-piperazinyl}-quinazoline hydrochloride] | 6.91 | 115 | 1960
19 | COc1cc2nc(N3CCN(C(=O)CCCNC(=O)OCc4ccccc4)CC3)nc(N)c2cc1OC [Example 6, 4-Amino-6,7-dimethoxy-2-{4-[(4-benzyloxycarbonylamino)butirryl]-1-piperazinyl}-quinazoline hydrochloride . 1.5 H2 O] | 7.54 | > 1000 | > 3000
20 | COc1cc2nc(N3CCN(C(c4ccccc4)c4ccccc4)CC3)nc(N)c2cc1OC [Example 2, 4-Amino-6,7-dimethoxy-2-(4-diphenylmethyl-1-piperazinyl)-guinazoline bihydrochloride emihydrate] | 7.40 | – | –
21 | COc1cc2nc(N3CCN(C(=O)C(C)(C)Oc4ccccc4OC)CC3)nc(N)c2cc1OC.Cl [Example 22, 4-Amino-6,7-dimethoxy-2-{4-[2-(2-methoxyphenoxy)-2-methylpropionyl]-1-piperazinyl}-quinazoline hydrochloride] | 7.31 | 435 | > 3000
22 | COc1cc2nc(N3CCN(C(=O)CCCN)CC3)nc(N)c2cc1OC [Example 8, 4-Amino-6,7-dimethoxy-2-[4-(4-aminobutirryl)-1-piperazinyl]-guinazoline dihydrobromide . 0.25 H2 O] | 7.33 | 219 | > 3000
23 | COc1cc2nc(N(C)Cc3ccccc3)nc(N)c2cc1OC [Example 28, 4-Amino-6,7-dimethoxy-2-(N-benzyl-N-methylamino)-guinazoline hydrochloride] | 7.15 | 89 | 293
24 | COc1cc2nc(N3CCc4c(ccc5ccccc45)C3)nc(N)c2cc1OC [Example 30, 4-Amino-6,7-dimethoxy-2-(1,2,3,4-tetrahydrobenzo[f]isoquinolin-2-yl)-quinazoline . 0.25 ethanole] | 8.30 | – | –
25 | COc1cc2nc(N3CCN(C(=O)COc4ccccc4OC)CC3)nc(N)c2cc1OC.Cl [Example 23, 4-Amino-6,7-dimethoxy-2-[4-(2-methoxyphenoxyacetyl)-1-piperazinyl]-quinazoline hydrochloride] | – | 337 | > 2000
26 | CCCCNC(=O)CC(=O)N1CCN(c2nc(N)c3cc(OC)c(OC)cc3n2)CC1.Cl [Example 19, 4-Amino-6,7-dimethoxy-2-[4-(3-n-butylamino-3-oxopropionyl)-1-piperazinyl]-quinazoline hydrochloride] | 7.02 | 459 | > 2000
27 | COc1cc2nc(N3CCN(C(=O)CNC(=O)CNC(=O)OCc4ccccc4)CC3)nc(N)c2cc1OC [Example 12, 4-Amino-6,7-dimethoxy-2-{4-[2-[2-(benzyloxycarbonylamino)-acetylamino]acetyl]-1-piperazinyl}-quinazoline hydrochloride hemihydrate] | 7.54 | 1130 | > 2000
28 | COc1cc2nc(N3CCN(C(=O)CC(N)=O)CC3)nc(N)c2cc1OC [Example 17, 4-Amino-6,7-dimethoxy-2-[4-(3-oxo-3-aminopropionyl)-1-piperazinyl]-quinazoline hydrochloride hydrate] | 6.98 | – | –
